Laboratory results published in the supplement of paper PMC10307832.

Tests used:
Assay in all cases: relative viability (nuclei count vs DMSO), 5 days (fraction); higher = more cells survive
[1] = compound: O[C@H]1CC[C@H](Nc2ncc3nc(Nc4c(F)cc(F)cc4F)n([C@H]4CCOC4)c3n2)CC1 [Tanzisertib] + CCNC(=O)c1noc(-c2cc(C(C)C)c(O)cc2O)c1-c1ccc(CN2CCOCC2)cc1 [Luminespib] (partner 0.01 µM)
In short: (§1)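 One day after seeding in 1536-well plates, lung cancer cell lines were dosed by pin tool. Dosing was either single-drug or a fixed anchor-drug dose plus five library-drug doses (not always all listed) in √10 steps. After 5 days, nuclei were stained in one fix-and-stain step and counted on 4× images, and relative viability is the nuclei count of treated wells over that of vehicle wells, given as the median of duplicate plates.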

[2] = compound: C[C@@H](N)c1ccc(C(=O)Nc2ccnc3[nH]ccc23)cc1 + COc1cc2c(Oc3ccc(NC(=O)C4(C(=O)Nc5ccc(F)cc5)CC4)cc3F)ccnc2cc1OCCCN1CCOCC1 [Foretinib] (partner 0.25 µM)
In short: as §1

[3] = compound: C1CNCCC1C2=CC(=NN2)C3=CC=NC=C3 + COc1cc2c(Oc3ccc(NC(=O)C4(C(=O)Nc5ccc(F)cc5)CC4)cc3F)ccnc2cc1OCCCN1CCOCC1 [Foretinib] (partner 0.25 µM)
In short: as §1

[4] = compound: O[C@H]1CC[C@H](Nc2ncc3nc(Nc4c(F)cc(F)cc4F)n([C@H]4CCOC4)c3n2)CC1 [Tanzisertib] + CC(C)C[C@H](NC(=O)[C@H](Cc1ccccc1)NC(=O)c1cnccn1)B(O)O [Bortezomib] (partner 0.002 µM)
In short: as §1

Cell Line | relative viability ([1]; first compound 0.08 µM) | relative viability ([1]; first compound 0.253 µM) | relative viability ([1]; first compound 0.8 µM) | relative viability ([1]; first compound 2.53 µM) | relative viability ([1]; first compound 8 µM) | relative viability ([2]; first compound 0.04 µM) | relative viability ([2]; first compound 0.1265 µM) | relative viability ([2]; first compound 0.4 µM) | relative viability ([2]; first compound 1.265 µM) | relative viability ([2]; first compound 4 µM) | relative viability ([3]; first compound 0.08 µM) | relative viability ([3]; first compound 0.8 µM) | relative viability ([3]; first compound 2.53 µM) | relative viability ([3]; first compound 8 µM) | relative viability ([4]; first compound 0.08 µM) | relative viability ([4]; first compound 0.253 µM) | relative viability ([4]; first compound 0.8 µM) | relative viability ([4]; first compound 2.53 µM) | relative viability ([4]; first compound 8 µM)
EKVX | 0.974 | 0.882 | 0.801 | 0.833 | 0.825 | 0.84 | 0.674 | 0.888 | 0.208 | 0.727 | 0.902 | 0.437 | 1.5 | 0.716 | 1.1 | 0.996 | 1.02 | 0.965 | 0.683
NCI-H441 | 0.312 | 0.338 | 0.29 | 0.279 | 0.314 | 0.988 | 1.05 | 1.02 |  | 0.843 | 0.945 | 1.18 | 1.12 | 0.834 | 0.53 | 0.409 | 0.407 | 0.815 | 0.471
NCI-H1975 | 0.331 | 0.142 | 0.232 | 0.161 | 0.247 | 1.06 | 0.854 | 0.847 | 0.681 | 0.653 | 1.07 | 1.03 | 0.962 | 0.932 | 0.428 | 0.467 | 0.371 | 0.401 | 0.347
NCI-H2085 | 0.525 | 0.406 | 0.443 | 0.459 | 0.457 | 1.03 | 0.989 | 0.918 | 0.901 | 0.79 | 1.02 | 0.698 | 0.916 | 0.901 | 1.11 | 1.08 | 0.992 | 1.07 | 1.09
H3255 | 0.818 | 0.929 | 1.02 | 0.846 | 0.773 | 0.855 | 0.939 | 1.14 | 0.731 | 0.892 | 0.861 | 0.983 | 1.03 | 0.9 | 0.829 | 0.796 | 0.819 | 0.845 | 0.427
NCI-H2087 | 0.182 | 0.2 | 0.166 | 0.21 | 0.168 | 1.16 | 1.07 | 1.1 |  | 0.983 | 0.982 | 1.19 | 1.05 | 1.1 | 0.985 | 0.931 | 0.835 | 0.9 | 0.857
LC-2-ad | 1.15 | 1.04 | 1.03 | 1.07 | 1.05 | 0.963 | 0.867 | 0.873 |  | 0.661 |  | 0.956 | 0.997 | 0.948 | 1.05 | 1.08 | 1.05 | 1.09 | 1.01
PC-3 [JPC-3] | 0.621 | 0.758 | 0.693 | 0.662 | 0.6 | 1.05 | 0.996 | 1.09 | 0.982 | 0.936 | 1.01 | 1.07 | 1.1 | 1.04 | 0.875 | 0.931 | 0.847 | 0.739 | 0.716
HCC-15 | 0.504 | 0.193 | 0.357 | 0.406 | 0.453 | 1.21 | 1.03 | 0.966 |  | 0.975 | 0.899 | 1.18 | 1.07 | 1.03 | 1.25 | 1.08 | 1.09 | 1.01 | 1
NCI-H1563 | 0.485 | 0.498 | 0.524 | 0.484 | 0.446 | 0.974 | 0.986 | 0.876 | 0.923 | 0.914 | 0.727 | 0.94 | 0.943 | 0.973 | 0.957 | 0.859 | 0.917 | 0.829 | 0.945
COR-L 105 | 0.795 | 0.754 | 0.651 | 0.986 | 0.69 | 0.755 | 0.939 | 1.03 | 0.865 | 0.761 | 1.22 | 1.07 | 1.13 | 1.67 | 0.818 | 0.708 | 0.99 | 0.877 | 0.482
NCI-H520 | 0.255 | 0.253 | 0.218 | 0.227 | 0.202 | 0.862 | 0.707 | 0.817 | 1.28 | 0.95 | 0.613 | 0.722 | 0.811 | 0.545 | 0.945 | 0.739 | 0.606 | 0.51 | 0.446
LU99A | 0.204 | 0.238 | 0.239 | 0.26 | 0.227 |  | 0.875 | 0.714 | 0.681 | 0.621 | 0.766 | 0.87 | 0.864 | 0.797 | 1.29 | 1.07 | 1.08 | 1.19 | 1.31
NCI-H1666 | 1.01 | 0.924 | 1.05 | 1.19 | 1.18 | 0.859 | 1.01 | 1.14 | 1.25 | 1.08 | 0.887 | 0.987 | 0.963 | 1.03 | 0.75 | 0.732 | 1.03 | 0.872 | 0.909
LCLC-97TM1 | 0.956 | 0.669 | 0.803 | 0.824 | 0.788 | 0.928 | 0.976 | 0.99 | 1.06 | 0.94 | 0.946 | 0.888 | 0.938 | 0.904 | 1.13 | 1.24 | 0.784 | 0.957 | 0.518
NCI-H3122 | 0.134 | 0.0952 | 0.125 | 0.0854 | 0.103 | 0.943 | 1.03 | 0.952 | 0.98 | 0.897 | 1.01 | 0.935 | 0.942 | 1.01 | 1.06 | 1.02 | 1.04 | 1.03 | 1.01
NCI-H2009 | 1.09 | 1.06 | 1.11 | 1.02 | 1.04 | 1.2 | 1.14 | 1.11 | 1.02 | 0.868 | 1.2 | 1.19 | 1.17 | 1.19 | 1.34 | 1 | 1.01 | 1.13 | 0.968
